According to patent US20230013435A1, “COMPOSITION FOR TREATING SYNUCLEINOPATHIES” (STANDIGM INC., priority 2019, published 2023):

Tested on: SH-SYSY cell line
Assay: Cytotoxicity, cell viability by MTT test
Format: cell-based
Conditions: SH-SYSY cells
Protocol: An SH-SYSY cell line (ATCC) was used to confirm the cytotoxicity of nevirapine. The SH-SYSY cell line was seeded in a 96-well plate, cultured, treated with an increasing concentration (0, 10, 100 μM) of nevirapine, and then incubated at a constant temperature for 24 hours. Thereafter, cell viability was measured using an MTT test method. Cells treated with 0 μM nevirapine were used as the control. ***P<0.001 against the control. Also, in the next experiment, the cytotoxicity of pirenzepine to be used as a reference drug was tested in the same manner as in the cytotoxicity experiment of nevirapine.

Structure (SMILES)	cell viability compared with the control (10 μM, 24 hours)	decrease in cell viability (100 μM, 24 hours)	cell viability compared with the control (0.5 μM)	decrease in cell viability (10 μM)
Cc1ccnc2c1NC(=O)c1cccnc1N2C1CC1 [nevirapine, 11-cyclopropyl-5,11-dihydro-4-methyl-6H-dipyrido[3,2-b:2′,3′-e][1,4]diazepin-6-one]	not changed significantly	approximately 70%	–	–
CN1CCN(CC(=O)N2c3ccccc3C(=O)Nc3cccnc32)CC1 [pirenzepine]	–	–	slight decrease	approximately 60%
